Experimental data as given in patent publication US5073565A, “Tetrazole ureas and thioureas and their use as ACAT inhibitors” (Warner-Lambert Company, priority 1990, dated 1991).
pIC50: −log10 of the molar value.

Experiments:
[1] = molecular target: T1, acyl-CoA: cholesterol acyltransferase (ACAT) (Oryctolagus cuniculus, UniProt G1SFD9); assay: in vitro ACAT inhibition (radiolabeled cholesterol oleate formed from radiolabeled oleic acid, rabbit intestinal microsomes); type: biochemical; conditions: read-out: IC50 (concentration of test compound required to inhibit the activity of the enzyme by 50%)
T1 construct: tissue preparation containing rabbit intestinal microsomes; from tissue; host or cells: rabbit intestinal microsomes
T1 sequence (G1SFD9 1-524): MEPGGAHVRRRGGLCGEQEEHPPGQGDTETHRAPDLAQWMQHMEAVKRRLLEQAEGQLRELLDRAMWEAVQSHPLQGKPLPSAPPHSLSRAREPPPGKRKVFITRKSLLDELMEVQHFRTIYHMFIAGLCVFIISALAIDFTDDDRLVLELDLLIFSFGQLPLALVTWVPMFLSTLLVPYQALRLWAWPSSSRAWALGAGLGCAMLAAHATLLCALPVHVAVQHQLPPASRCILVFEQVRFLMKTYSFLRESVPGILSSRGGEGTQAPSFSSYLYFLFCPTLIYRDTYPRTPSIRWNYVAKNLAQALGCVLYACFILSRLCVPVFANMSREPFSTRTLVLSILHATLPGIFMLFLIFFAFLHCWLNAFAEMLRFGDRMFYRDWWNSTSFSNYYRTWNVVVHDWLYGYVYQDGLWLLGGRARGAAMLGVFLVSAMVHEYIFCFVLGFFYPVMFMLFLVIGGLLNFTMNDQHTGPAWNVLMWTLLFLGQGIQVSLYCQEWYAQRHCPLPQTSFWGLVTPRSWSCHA
Protocol: The ability of representative compounds of the present invention to inhibit ACAT was measured using an in vitro test more fully described in Field, F. J. and Salone, R. G., Biochemica et Biophysica, 712:557-570 (1982). The test assesses the ability of a test compound to inhibit the acylation of cholesterol by oleic acid by measuring the amount of radiolabeled cholesterol oleate formed from radiolabeled oleic acid in a tissue preparation containing rabbit intestinal microsomes.
The data appear in Table I where they are expressed in IC50 values; i.e., the concentration of test compound required to inhibit the activity of the enzyme by 50%.

[2] = J. Medicinal Chemistry 22, 28-32 (1979); cited from earlier work
[3] = in vivo screen designated APCC (total cholesterol in rats on PCC diet); set-up: species or system male Sprague-Dawley rats; conditions: rat, 50 (mg/dl), N/C means no change
Excerpt: In one in vivo screen designated APCC, male Sprague-Dawley rats (200 to 225 g) were randomly divided into treatment groups and dosed at 4 PM with either vehicle (CMC/Tween) or suspensions of compounds in vehicle. The normal chow diet was then replaced with the PCC diet (5.5% peanut oil, 1.5% cholesterol, and 0.5% cholic acid). The rats consumed this diet a libitum during the night and were sacrificed at 8 AM to obtain blood samples for cholesterol analysis using standard procedures. Statistical differences between mean cholesterol values for the same vehicle were determined using analysis of variance followed by Fisher's least significant test. The results of this trail for representative compounds of the present invention appear in Table II wherein percent change means the difference in total cholesterol between control, and the drug-treated animals, and the (mg/dL) is the milligrams of compound per deciliter of vehicle administered. The milligrams are reflected parenthetically.

Row | SMILES | pIC50 [1] | antileukemic data [2] | % Change (difference in total cholesterol between control and drug-treated animals) [3]
1 | CC(C)c1cccc(C(C)C)c1NC(=O)Nc1nnn(CCCCCCCCCCOC2CCCCO2)n1 (stereo not shown) [Example 7] | 7.92 | – | –
2 | CCCCCCCCCCCCCn1nnc(NC(=O)Nc2c(C(C)C)cccc2C(C)C)n1 [Example 4, N-[2,6-Bis(1-methylethyl)phenyl]-N'-(2-tridecyl-2H-tetrazol-5-yl)urea] | 8.05 | – | –
3 | CCCCCCCCCCCn1nnc(NC(=O)Nc2c(C(C)C)cccc2C(C)C)n1 [Example 10, N-[2,6-Bis(1-methylethyl)-phenyl]-N'-(2-undecyl-2H-tetrazol-5-yl)urea] | 8.05 | – | –
4 | CCCCCCCCCCCCn1nnc(NC(=O)Nc2c(C(C)C)cccc2C(C)C)n1 [Example 5, N-[2,6-Bis(1-methylethyl)-phenyl]-N'-(2-dodecyl-2H-tetrazol-5-yl)urea] | 7.85 | – | –
5 | CC(C)c1cccc(C(C)C)c1NC(=O)Nc1nnn(CCCCCCCCCCO)n1 [Example 15, N-[2,6-Bis(1-methylethyl)phenyl]-N'-[2-(10-hydroxy-decyl)-2H-tetrazol-5-yl]urea] | 7.14 | – | –
6 | CC(C)c1cccc(C(C)C)c1NC(=O)Nc1nnn(CCCCCCCCCCCCO)n1 [1 (d), N-[2,6-Bis(1-methylethyl)phenyl]-N'-[2-(12-hydroxy-dodecyl)-2H-tetrazol-5-yl] urea] | 7.68 | – | –
7 | CCCCCCCCCCCCCCCCn1nnc(NC(=O)Nc2c(C(C)C)cccc2C(C)C)n1 [Example 6, N-[2,6-Bis(1-methylethyl)-phenyl]-N'-(2-hexadecyl-2H-tetrazol-5-yl)urea] | 7.24 | – | –
8 | CCCCCCCCCCCCCCn1nnc(NC(=O)Nc2c(C(C)C)cccc2C(C)C)n1 [Example 3, N-[2,6-bis(1-methylethyl)phenyl]-N'-(2-tetradecyl-2H-tetrazol-5-yl)urea] | 7.92 | – | –
9 | CCCCn1nnc(NC(=O)Nc2c(C(C)C)cccc2C(C)C)n1 [Example 11, N-[2,6-Bis(1-methylethyl)-phenyl]-N'-(2-butyl-2H-tetrazol-5-yl)urea] | 7.04 | – | –
10 | CCOC(=O)c1ccc(NC(=O)Nc2nnn[nH]2)cc1 [N-(4-ethoxycarbonylphenyl)-N'-tetrazol-5-yl-urea] | – | inactive | –
11 | CC(C)c1cccc(C(C)C)c1NC(=O)Nc1nnn(CCCCCCCCCCCCOC2CCCCO2)n1 (stereo not shown) [1 (c)] | 7.44 | – | –

Continued, in another order:

Row | pIC50 [1] | SMILES | antileukemic data [2] | % Change (difference in total cholesterol between control and drug-treated animals) [3]
12 | 6.49 | CC(C)c1cccc(C(C)C)c1NC(=O)Nc1nnnn1CCc1ccccc1 [Example 21] | – | –
13 | 6.74 | CCCCCCCCCCn1nnnc1NC(=O)Nc1c(C(C)C)cccc1C(C)C [Example 20] | – | –
14 | 7.85 | CCCCCCCCCCn1nnc(NC(=O)Nc2c(C(C)C)cccc2C(C)C)n1 [Example 24, N-[2,6-Bis(1-methylethyl)phenyl]-N'-(2-decyl-2H-tetrazol-5-yl)urea] | – | –
15 | 7.14 | CCCCCCn1nnc(NC(=O)Nc2c(C(C)C)cccc2C(C)C)n1 [Example 23, N-[2,6-Bis(1-methylethyl)phenyl]-N'-(2-hexyl-2H-tetrazol-5-yl)urea] | – | –
16 | 6.52 | CC(C)c1cccc(C(C)C)c1NC(=O)Nc1nnnn1Cc1ccccc1 [Example 19, N-[2,6-Bis(1-methylethyl)phenyl]-N'-(1-phenylmethyl-1H-tetrazol-5-yl)urea] | – | –
17 | 6.43 | CC(C)c1cccc(C(C)C)c1NC(=O)Nc1nnn(Cc2ccccc2)n1 [Example 17, N-[2,6-Bis(1-methylethyl)phenyl]-N'-(2-phenylmethyl-2H-tetrazol-5-yl)urea] | – | N/C
18 | 7.23 | CCCCCCCCn1nnc(NC(=O)Nc2c(C(C)C)cccc2C(C)C)n1 [Example 22, N-[2,6-Bis(1-methylethyl)phenyl]-N'-(2-octyl-2H-tetrazol-5-yl)urea] | – | –
